What was measured:
Mus musculus [1] = species on record: Mus musculus; assay: Percent inhibition of nitric oxide (NO) production in lipopolysaccharide activated mouse peritoneal macrophages at 100 uM of compound; format: functional
Mus musculus [2] = species on record: Mus musculus; assay: Inhibitory concentration of compound on nitric oxide (NO) production in lipopolysaccharide activated mouse peritoneal macrophages; format: functional
[3] = Concentration with cytotoxic effect on mouse peritoneal macrophages

Row | SMILES | IC50 (Mus musculus [2]; read-out: IC50) [µM] | Inhibition (Mus musculus [1]) [%] | Cytotoxicity [3] [µM] | IC50 (Mus musculus [2]) [µg/mL]
1 | C=CCc1ccc(O[C@@H]2O[C@H](CO)[C@@H](O)[C@H](O)[C@H]2O)cc1 | > 100 | 6 | – | –
2 | C=CC(OC)c1ccc(OC)cc1 (configuration not stated) | > 100 | 22 | – | –
3 | C=CCC(O)c1ccc(O)cc1 (configuration not stated) | > 100 | 13 | – | –
4 | CC[C@H](OC(C)=O)c1ccccc1 | > 100 | 25 | – | –
5 | C=CC(OC(C)=O)c1cccc(OC(C)=O)c1 (configuration not stated) | > 100 | 20 | – | –
6 | C=CC(O)c1cccc(O)c1 (configuration not stated) | > 100 | 1 | – | –
7 | C=CC(OC(C)=O)c1cccc(O)c1 (configuration not stated) | > 100 | 25 | – | –
8 | C=CC(O)c1ccccc1O (configuration not stated) | > 100 | 0 | – | –
9 | C=CC(O)c1ccc(O)cc1 (configuration not stated) | > 100 | -1 | – | –
10 | CCC(O)c1ccc(O)cc1 (configuration not stated) | > 100 | 11 | – | –
11 | C=C[C@H](O)c1ccc(OC(C)=O)cc1 | > 100 | 46 | – | –
12 | C=C[C@H](O)c1ccccc1 | > 100 | 19 | – | –
13 | CC[C@H](O)c1ccccc1 | > 100 | -4 | – | –
14 | O=C(O)/C=C/c1cccc(O)c1 | > 100 | 3 | – | –
15 | C=C[C@H](OC(C)=O)c1ccc(OC(C)=O)cc1 [1'-ACETOXYCHAVICOL ACETATE] | 2.3 | – | – | –
16 | COc1ccc(/C=C/C(=O)O)cc1 [4-METHOXYCINNAMIC ACID] | > 100 | 27 | – | –
17 | CC(C)=O [ACETONE] | – | – | – | 7.3
18 | O=C(O)/C=C/c1ccc(O)c(O)c1 [CAFFEIC ACID] | > 100 | 15 | – | –
19 | C=CCc1ccc(O)cc1 [CHAVICOL] | > 100 | 43 | – | –
20 | O=C(O)/C=C/c1ccccc1 [CINNAMIC ACID] | > 100 | 15 | – | –
21 | C=CCc1ccc(O)c(OC)c1 [EUGENOL] | > 100 | 15 | – | –
22 | C=CCc1ccc(OC)c(OC)c1 [METHYLEUGENOL] | > 100 | 1 | – | –
23 | COc1ccc(/C=C/C(=O)O)cc1OC [O,O'-DIMETHYLCAFFEIC ACID] | > 100 | 1 | – | –
24 | O=C(O)/C=C/c1ccccc1O [O-COUMARIC ACID] | > 100 | 7 | – | –
25 | COc1cc(/C=C/C(=O)O)cc(OC)c1O [SINAPINATE] | > 100 | 27 | – | –

Now from value to compound, other results behind:

Row | IC50 (Mus musculus [2]; read-out: IC50) [µM] | SMILES | Inhibition (Mus musculus [1]) [%] | Cytotoxicity [3] [µM] | IC50 (Mus musculus [2]) [µg/mL]
26 | > 100 | C=C[C@H](OC(C)=O)c1ccccc1 | 20 | – | –
27 | 65 | C=CCc1ccc(OC(C)=O)cc1 | – | – | –
28 | > 100 | OC/C=C/c1ccc(O)cc1 | 24 | – | –
29 | 11 | C=C[C@H](OC(C)=O)c1ccc(OC(C)=O)c(OC)c1 | – | – | –
30 | 72 | CC(=O)OC/C=C/c1ccc(O)cc1 | – | – | –
31 | 30 | C=CC(OC(=O)CC)c1ccc(OC(=O)CC)cc1 (configuration not stated) | – | – | –
32 | 99 | CCC(OC(C)=O)c1ccccc1OC(C)=O (configuration not stated) | – | – | –
33 | 59 | CCC(=O)Oc1ccc(C(CC)OC(=O)CC)cc1 (configuration not stated) | – | – | –
34 | 10 | CCC(OC(C)=O)c1ccc(OC(C)=O)cc1 (configuration not stated) | – | – | –
35 | 47 | CCCC(OC(C)=O)c1ccc(OC(C)=O)cc1 (configuration not stated) | – | – | –
36 | > 30 | C=CC(O)c1ccc(OC)cc1 (configuration not stated) | -3 | 100 | –
37 | 4.9 | C=CC(OC(C)=O)c1ccc(OC(C)=O)cc1 (configuration not stated) | – | – | –
38 | 3.2 | C=CC(OC(C)=O)c1ccccc1OC(C)=O (configuration not stated) | – | – | –
39 | 8.2 | C=C[C@@H](OC(C)=O)c1ccc(OC(C)=O)cc1 | – | – | –
40 | 9.2 | C=CCC(OC(C)=O)c1ccc(OC(C)=O)cc1 (configuration not stated) | – | – | –
41 | 19 | CC(=O)OC/C=C/c1ccc(OC(C)=O)cc1 | – | – | –
42 | 15 | O=C(/C=C/c1ccc(O)c(O)c1)OCCc1ccccc1 [CAFFEIC ACID PHENETHYL ESTER] | – | – | –
43 | 7.4 | N=C(N)NCCSSCCNC(=N)N [GUANIDINOETHYLDISULFIDE] | – | – | –
44 | 15 | C=CCc1ccc(O)c(O)c1 [HYDROXYCHAVICOL] | – | – | –
45 | 20 | O=C/C=C/c1ccc(O)cc1 [p-HYDROXYCINNAMALDEHYDE] | – | – | –
